Results from patent US20230023847A1, “COMPOSITION FOR PREVENTING HAIR LOSS AND PROMOTING HAIR REGROWTH” (LG HOUSEHOLD & HEALTH CARE LTD., priority 2020, published 2023).

Assays:
androgen receptor = experiment: Androgenic activity: transcriptional activation (MMTV-Luc luciferase reporter) assay with 1 nM DHT; format: cell-based, human; details: 24 hours
Description: (§1) The stable cell line was maintained by subculturing using RPMI1640 and 10% fetal bovine serum (GIBCO BRL, Gaithersburg, Md., USA). For transcriptional activation assay, the cells were seeded in a 96-well plate, with 25,000 cells per well, while replacing the medium with phenol red-free RPMI1640 containing 5% charcoal-stripped fetal bovine serum. […] The cell culture was treated and incubated with CCK-8 at 1:10 for 2 hours. 2 hour later, the absorbance of each well was measured at 450 nm. All the experiments were 3 times and the absorbance was averaged. […] The experimental result is shown in Table 1, Table 2 and FIGS. 1-4.

Dkk-1 = experiment: Inhibition of expression of hair follicle catagen factor (Dkk-1 ELISA); format: cell-based; details: 24 hours, human dermal papilla cells (hDPCs)
Description: The inhibition of the expression of the hair follicle catagen marker Dkk-1 was investigated using human dermal papilla cells (hDPCs). The human dermal papilla cells were purchased from PromoCell. The hDPCs were subcultured in an hDPC culture medium (follicle dermal papilla cell growth medium; PromoCell, Heidelberg, Germany) containing a medium additive (Supplement Mix; PromoCell, Heidelberg, Germany), 100 units/mL penicillin and […] streptomycin under the condition of 37° C. and 5% CO2. One million subcultured hDPCs were seeded onto a 100-mm cell culture dish and then cultured in an incubator at 37° C. 48 hours later, after treating with each of gypsogenin 3-O-β-D-glucuronopyranoside, deapioplatycodin D, congmunoside X and chikusetsusaponin IVa at 2 ppm or 20 ppm for 24 hours, the cell culture was subjected to Dkk-1 ELISA assay (R&D Systems, USA). The protein amount of each test group was identified by BCA assay and corrected with the result of Dkk-1 ELISA.

[1] = test system: 22Rv1 human prostate cancer cells; experiment: CCK-8 assay conducted in parallel to investigate cytotoxicity (cell viability)
Description: as §1

Compound | Androgenic activity (% of 1 nM DHT) (androgen receptor; 0.2 ppm together with 1 nM DHT) | Androgenic activity (% of 1 nM DHT) (androgen receptor; 2 ppm together with 1 nM DHT) | Androgenic activity (% of 1 nM DHT) (androgen receptor; 20 ppm together with 1 nM DHT) | Relative expression level of Dkk-1 (% of untreated group) (Dkk-1; 2 ppm) | Relative expression level of Dkk-1 (% of untreated group) (Dkk-1; 20 ppm) | Androgenic activity (% of 1 nM DHT) (androgen receptor; 200 ppm together with 1 nM DHT) | Cell viability (% of 1 nM DHT) ([1]; DHT 1 nM alone, CCK-8, 22Rv1 stable cell line) | Androgenic activity (% of 1 nM DHT) (androgen receptor; DHT 1 nM alone, 22Rv1 MMTV-Luc stable cell line) | Cell viability (% of 1 nM DHT) ([1]; 0.2 ppm together with 1 nM DHT, CCK-8) | Cell viability (% of 1 nM DHT) ([1]; 2 ppm together with 1 nM DHT, CCK-8) | Cell viability (% of 1 nM DHT) ([1]; 20 ppm together with 1 nM DHT, CCK-8)
CC1(C)CC[C@]2(C(=O)O[C@@H]3O[C@H](CO)[C@@H](O)[C@H](O)[C@H]3O)CC[C@]3(C)C(=CC[C@@H]4[C@@]5(C)CC[C@H](O[C@@H]6O[C@H](C(=O)O)[C@@H](O)[C@H](O)[C@H]6O)C(C)(C)[C@@H]5CC[C@]43C)[C@@H]2C1 [Chikusetsusaponin IVa, chikusetsusaponin IVa] | 84.7 % of 1 nM DHT | 79 % of 1 nM DHT | 77.5 % of 1 nM DHT | 85.2 % of untreated group | 70.9 % of untreated group | – | – | – | – | – | –
CC1(C)CC[C@]2(C(=O)O[C@@H]3O[C@H](CO)[C@@H](O)[C@H](O)[C@H]3O)CC[C@]3(C)C(=CC[C@@H]4[C@@]5(C)CC[C@H](O[C@@H]6O[C@H](CO)[C@@H](O)[C@H](O[C@@H]7O[C@H](CO)[C@@H](O)[C@H](O[C@@H]8O[C@H](CO)[C@@H](O)[C@H](O)[C@H]8O)[C@H]7O)[C@H]6O[C@@H]6O[C@H](CO)[C@@H](O)[C@H](O)[C@H]6O)C(C)(C)[C@@H]5CC[C@]43C)[C@@H]2C1 [Congmunoside X, congmunoside X] | – | 104.4 % of 1 nM DHT | 85.9 % of 1 nM DHT | 90.8 % of untreated group | 81.2 % of untreated group | 14.9 % of 1 nM DHT | – | – | – | – | –
C[C@]12CCC(=O)C[C@@H]1CC[C@@H]1[C@@H]2CC[C@]2(C)[C@@H](O)CC[C@@H]12 [DHT, dihydrotestosterone, reference compound] | – | – | – | – | – | – | 100.0 % of 1 nM DHT | 100.0 % of 1 nM DHT | – | – | –
C[C@@H]1O[C@@H](O[C@H]2[C@H](OC(=O)[C@]34CCC(C)(C)C[C@H]3C3=CC[C@@H]5[C@@]6(C)C[C@H](O)[C@H](O[C@@H]7O[C@H](CO)[C@@H](O)[C@H](O)[C@H]7O)C(CO)(CO)[C@@H]6CC[C@@]5(C)[C@]3(C)C[C@H]4O)OC[C@H](O)[C@@H]2O)[C@H](O)[C@H](O)[C@H]1O[C@@H]1OC[C@@H](O)[C@H](O)[C@H]1O [Deapioplatycodin D, deapioplatycodin D] | 89.1 % of 1 nM DHT | 72.2 % of 1 nM DHT | 34.9 % of 1 nM DHT | 86.4 % of untreated group | 76.7 % of untreated group | – | – | – | 102.2 % of 1 nM DHT | 99.4 % of 1 nM DHT | 81.6 % of 1 nM DHT
CC1(C)CC[C@]2(C(=O)O)CC[C@]3(C)C(=CC[C@@H]4[C@@]5(C)CC[C@H](O[C@@H]6O[C@H](C(=O)O)[C@@H](O)[C@H](O)[C@H]6O)[C@@](C)(C=O)[C@@H]5CC[C@]43C)[C@@H]2C1 [Gypsogenin 3-O-β-D-glucuronopyranoside, gypsogenin 3-O-β-D-glucuronopyranoside] | 98.1 % of 1 nM DHT | 79.1 % of 1 nM DHT | −9.8 % of 1 nM DHT | 96.5 % of untreated group | 77.5 % of untreated group | – | – | – | – | – | –
